{"source": "patent US10596190B2", "about": "“Method for reducing ototoxicity in pediatric patients receiving platinum-based chemotherapy” (priority 2017, dated 2020)", "key": {"[1]": {"system": "small cell lung cancer cell cultures", "conditions": "cited from earlier work"}, "[2]": {"system": "pediatric patients receiving cisplatin", "source_text": "(§1) Secondary endpoints were frequency-specific hearing loss at 4 weeks (for 500 Hz, 1000 Hz, 2000 Hz, 4000 Hz, and 8000 Hz), haematological and renal toxicity, event free survival (defined as the time from study enrolment until disease relapse or progression, diagnosis of a second malignant neoplasm, or death, whichever came first), and overall survival (defined as the time from enrolment to death or last date confirmed alive). By protocol amendment on Mar.\nWe estimated the probability of remaining event free as a function of time post-enrolment using the method of Kaplan and Meier. We compared risk of event across groups defined by randomised regimen using the log-rank statistic. We generated relative hazard ratios (RHR) and 95% CIs by fitting a relative-risk regression model, using partial likelihood where the model contained the characteristic of interest as the only variable. We computed survival estimates as 3-year event-free survival and 3-year overall survival. We did a post-hoc analysis of event-free survival and overall survival by extent of disease using the same methods. We considered all eligible participants in the survival analyses by intention to treat. We did all statistical calculations using SAS (version 9.4) or Stata (version 14)."}, "[3]": {"conditions": "cited from earlier work"}, "[4]": {"system": "pediatric patients receiving cisplatin", "experiment": "Phase 3 trial of Example 1: haematological and renal toxicity, adverse events", "procedure": "(§2) Cisplatin was administered as specified by each participant's cancer treatment plan. For participants randomly assigned to the control group, the cisplatin containing treatment regimen alone was to be administered. […] Concurrent use of other ototoxic drugs (eg, aminoglycosides and loop diuretics) was discouraged by protocol for all participants but captured in data reporting.\nas §1\nFor haematological and renal toxicity, denominators represent the number of participants who completed the required toxicity assessment during each cycle. For both types of toxicity, we assessed the hypothesis of no difference in incidence using a χ^2 test of proportions."}, "[5]": {"system": "pediatric patients receiving cisplatin", "conditions": "for Incidence of hearing loss / Hearing loss: 4 weeks; for Mean change in hearing threshold: baseline to 4 weeks after cisplatin, negative = better threshold", "source_text": "The study was designed as a multicentre, randomised, open-label, phase 3 clinical trial. Patients were enrolled at 38 participating Children's Oncology Group (COG) hospitals in the USA and Canada. Written consent or assent from participants or their legal guardians were obtained before registration. The study was approved by the US National Cancer Institute (NCI) Central Institutional Review Board and site institutional review boards. Co-enrollment onto a companion observational cohort study of ototoxicity grading scales was mandatory. Participants in the study were aged 1-18 years at study entry and were newly diagnosed with hepatoblastoma, germ cell tumour, medulloblastoma or CNS primitive neuroectodermal tumour, neuroblastoma, osteosarcoma, or other cancer types treated with cisplatin.\nKey eligibility criteria included planned cumulative cisplatin dose of 200 mg/m^2 or more and infusion duration of 6 h or less; performance score of 50 or more by the Karnofsky (>16 years) or Lansky (≤16 years) scales; no previous cisplatin or carboplatin treatment; no known thiol hypersensitivity; and normal institutional laboratory values reflecting haematological, renal, and hepatic function. Normal hearing was required before enrolment as defined by hearing thresholds of 20 dB hearing level (HL) or less at 500-8000 Hz when measured with earphones or 25 dB HL or less when measured in the sound field, or as defined by brainstem auditory evoked response thresholds equivalent to behavioural thresholds of 20 dB HL or less. Previous cranial irradiation was initially not allowed but later permitted, provided hearing was normal, by a protocol amendment (Mar. 31, 2010) to augment trial recruitment. Patients were not eligible if they were registered on a cancer directed COG therapeutic study to avoid potential confounding of the primary aims by the ACCL0431 randomization.\nThe randomization was centrally computer-generated by the COG trial management system. Allocation was electronically concealed to all investigators, clinicians, and participants. Site research staff did the enrolment, entering eligibility confirmation and specification of stratification factors into the COG trial management system, and receiving the electronically generated allocation for the site. Randomization was 1:1 and was initially stratified into four groups defined by age (<5 years or ≥5 years) and duration of cisplatin infusion (<2 h or ≥2 h). Later, we added one separate stratum for eligible participants who had previously received cranial irradiation, irrespective of age or duration of cisplatin infusion. Randomization was masked for central reviewers of audiometry data, but was not placebo controlled for participants or treating clinicians to minimise complexity and cost for participating sites.\nas §2\nHearing assessments were done at baseline, up to 8 days before each cisplatin course, 4 weeks after completion of the final cisplatin course, and 1 year later. Audiometry included measurement of bilateral pure tone air conduction thresholds at 500-8000 Hz with earphones or in the sound field using paediatric hearing assessment methods; otoscopy; immittance evaluation of middle ear function; and evoked otoacoustic emissions, if available. For participants unable to cooperate due to very young age, developmental disability, or medical status, brainstem auditory evoked response thresholds were to be measured instead.\nAudiological testing was completed using standard clinical audiometers, middle ear analyzers, evoked potentials systems, and evoked otoacoustic emission OAE systems (if available)."}, "[6]": {"conditions": "in a solution of sodium chloride; cited from earlier work"}, "[7]": {"system": "patients receiving Cisplatin chemotherapy for standard risk hepatoblastoma", "type": "in vivo, human", "from_the_text": "The control arm included cisplatin only treated patients and the test arm including cisplatin treated patients followed by administration of STS.\nThe primary end point of the study was the rate of Brock grade ≥1 hearing loss determined after end of trial treatment or at an age of at least 3.5 years, whichever was later. Secondary end-points included: response to preoperative chemotherapy, complete resection, complete remission, event free survival (EFS), overall survival (OS), toxicity as graded by CTCAE v 3.0, long-term renal clearance, and feasibility of central audiology review\n• Pre-operative randomised 1:1 chemotherapy (4 courses of Cisplatin, with or without STS, every second week) • Surgical removal of all remaining tumour lesions.\nFor all patients, the pre-surgery courses were given on day 1, 15, 29 and 43 (exceptionally, if surgery was delayed, courses could also be given on day 57 and 71). Post-surgery courses were started as soon as possible, but within 21 days with two courses given on day 1 and 15. […] The following treatment schedules were followed:\nAdministration Pre-hydration • At least 3 hours pre-hydration with 2.5% dextrose/0.45% saline • Run at 200 ml/m2/hr (total volume 600 ml/m^2) Cisplatin infusion over 6 hours • Cisplatin in 0.9% sodium chloride. […]"}, "[8]": {"conditions": "all eligible, 61 participants assigned"}}, "note": "Where two headings read alike, the source gives them in different places.", "data": [{"compound": "sodium thiosulfate", "values": [{"measurement": "Effect of STS on cytotoxicity of etoposide", "setting": "[1]; immediate or delayed addition of STS, incubation for 72 hours", "value": "no reduction of cytotoxicity"}, {"measurement": "Effect of STS on anti-tumor activity of doxorubicin, carmustine (BCNU), paclitaxel or methotrexate", "setting": "[1]; similar studies", "value": "no reduction of anti-tumor activity"}, {"measurement": "Deaths, number", "setting": "[2]; [8]", "value": 17}, {"measurement": "Events, number", "setting": "[2]; [8]", "value": 26}, {"measurement": "Deaths, number", "setting": "[2]; disseminated disease", "value": 11}, {"measurement": "Events, number", "setting": "[2]; disseminated disease", "value": 12}, {"measurement": "Event-free survival vs control group", "setting": "[2]; disseminated disease (n=47)", "value": "no difference"}, {"measurement": "Overall survival vs control group", "setting": "[2]; disseminated disease (n=47)", "value": "significantly lower"}, {"measurement": "3-year event-free survival", "setting": "[2]; disseminated disease, post-hoc", "value": 42, "unit": "%"}, {"measurement": "3-year overall survival", "setting": "[2]; disseminated disease, post-hoc", "value": 45, "unit": "%"}, {"measurement": "3-year event-free survival", "setting": "[2]; entire sample", "value": 54, "unit": "%"}, {"measurement": "3-year overall survival", "setting": "[2]; entire sample", "value": 70, "unit": "%"}, {"measurement": "Event-free survival or overall survival vs control group", "setting": "[2]; entire sample", "value": "no significant difference"}, {"measurement": "Deaths, number", "setting": "[2]; localised disease", "value": "six"}, {"measurement": "Events, number", "setting": "[2]; localised disease", "value": 14}, {"measurement": "Event-free survival or overall survival vs control group", "setting": "[2]; localised disease (n=77)", "value": "no significant difference"}, {"measurement": "3-year event-free survival", "setting": "[2]; localised disease, post-hoc", "value": 60, "unit": "%"}, {"measurement": "3-year overall survival", "setting": "[2]; localised disease, post-hoc", "value": 83, "unit": "%"}, {"measurement": "Excreted unchanged in the urine", "setting": "[3]; following IV injection", "value": "Up to 95%"}, {"measurement": "Biological half-life", "setting": "[3]; in vivo", "value": 0.65, "unit": "hours"}, {"measurement": "Biological half-life, range dependent on dose", "setting": "[3]; in vivo", "value": "16.5-182 minutes"}, {"measurement": "Hypokalaemia (most common non-haematological adverse event), participant cycles", "setting": "[4]; 25 of 147 participant cycles", "value": 17, "unit": "%"}, {"measurement": "Aggregate nephrotoxicity, participant cycles affected", "setting": "[4]; 37 of 147 participant cycles", "value": 25, "unit": "%"}, {"measurement": "Grade 3-4 neutropenia, participant cycles", "setting": "[4]; 117 of 177 participant cycles, irrespective of attribution", "value": 66, "unit": "%"}, {"measurement": "Haematological toxicity, participant cycles affected", "setting": "[4]; 137 of 177 participant cycles", "value": 77, "unit": "%"}, {"measurement": "Serious adverse events reported, number", "setting": "[4]; in 26 patients", "value": 194}, {"measurement": "Haematological serious adverse events, number", "setting": "[4]; in vivo", "value": 70}, {"measurement": "Hypophosphataemia and hypokalaemia vs control group", "setting": "[4]; in vivo", "value": "more common"}, {"measurement": "Increased creatinine or reduced glomerular filtration rate meeting CTCAE grade 3 threshold", "setting": "[4]; in vivo", "value": "no cases"}, {"measurement": "Non-haematological serious adverse events, number", "setting": "[4]; in vivo", "value": 85}, {"measurement": "Haematological serious adverse events deemed possibly related, number", "setting": "[4]; of 70", "value": "four"}, {"measurement": "Haematological serious adverse events deemed unlikely related, number", "setting": "[4]; of 70", "value": 13}, {"measurement": "Haematological serious adverse events deemed unrelated, number", "setting": "[4]; of 70", "value": 53}, {"measurement": "Haematological serious adverse events probably or definitely related", "setting": "[4]; of 70", "value": "none"}, {"measurement": "Non-haematological serious adverse events deemed possibly related, number", "setting": "[4]; of 85", "value": 11}, {"measurement": "Non-haematological serious adverse events deemed unlikely related, number", "setting": "[4]; of 85", "value": 25}, {"measurement": "Non-haematological serious adverse events deemed unrelated, number", "setting": "[4]; of 85", "value": 49}, {"measurement": "Non-haematological serious adverse events probably or definitely related", "setting": "[4]; of 85", "value": "none"}, {"measurement": "Serious adverse events deemed possibly related, number", "setting": "[4]; of 194", "value": 20}, {"measurement": "Serious adverse events deemed unlikely related, number", "setting": "[4]; of 194", "value": 62}, {"measurement": "Serious adverse events deemed unrelated, number", "setting": "[4]; of 194", "value": 112}, {"measurement": "Serious adverse events probably or definitely related", "setting": "[4]; of 194", "value": "none"}, {"measurement": "Serious adverse events: decreased platelet count, number", "setting": "[4]; of 194, in 12 participants", "value": 23}, {"measurement": "Serious adverse events: decreased neutrophil count, number", "setting": "[4]; of 194, in 14 participants", "value": 26}, {"measurement": "Serious adverse events: anaemia, number", "setting": "[4]; of 194, in ten participants", "value": 21}, {"measurement": "Hearing loss (ASHA criteria), proportion of participants", "setting": "[5]; 4 weeks after final cisplatin, all assessable participants (49 in STS group)", "value": 28.6, "unit": "%"}, {"measurement": "Incidence of hearing loss", "setting": "[5]; after cisplatin infusion of 2-6 h", "value": 41.7, "unit": "%"}, {"measurement": "Incidence of hearing loss", "setting": "[5]; after cisplatin infusion of less than 2 h", "value": 16.0, "unit": "%"}, {"measurement": "Incidence of hearing loss", "setting": "[5]; older patients (5 years or more)", "value": 31.4, "unit": "%"}, {"measurement": "Incidence of hearing loss", "setting": "[5]; participants younger than 5 years", "value": 21.4, "unit": "%"}, {"measurement": "Hearing loss", "setting": "[5]; post-hoc, eight irradiated participants excluded", "value": 26.7, "unit": "%"}, {"measurement": "Hearing loss", "setting": "[5]; stratum of previous cranial irradiation", "value": 50, "unit": "%"}, {"measurement": "Change between groups (Control vs STS) in mean hearing threshold change", "setting": "[5]; 500 Hz", "value": 0.4}, {"measurement": "Mean change in hearing threshold", "setting": "[5]; 500 Hz", "value": "−1.5"}, {"measurement": "Change between groups (Control vs STS) in mean hearing threshold change", "setting": "[5]; 1000 Hz", "value": 0.4}, {"measurement": "Mean change in hearing threshold", "setting": "[5]; 1000 Hz", "value": "−0.7"}, {"measurement": "Change between groups (Control vs STS) in mean hearing threshold change", "setting": "[5]; 2000 Hz", "value": 1.8}, {"measurement": "Mean change in hearing threshold", "setting": "[5]; 2000 Hz", "value": "−1.2"}, {"measurement": "Change between groups (Control vs STS) in mean hearing threshold change", "setting": "[5]; 4000 Hz", "value": 8.5}, {"measurement": "Mean change in hearing threshold", "setting": "[5]; 4000 Hz", "value": 1.1}, {"measurement": "Change between groups (Control vs STS) in mean hearing threshold change", "setting": "[5]; 8000 Hz", "value": 7.3}, {"measurement": "Mean change in hearing threshold", "setting": "[5]; 8000 Hz", "value": 9.7}, {"measurement": "ASHA-defined hearing loss", "setting": "[5]; at 1 year, post-hoc analysis", "value": 28, "unit": "%"}]}, {"compound": "N.N.[Cl][Pt][Cl]", "note": "[cisplatin]", "values": [{"measurement": "Stability post dilution", "setting": "[6]", "value": "≤ 7", "unit": "days"}, {"measurement": "Patients having Brock grade 0 or little to no hearing loss", "setting": "[7]; by treatment arm", "value": "below 40%"}, {"measurement": "Incidence rate of Brock ≥1 hearing loss", "setting": "[7]; by treatment arm (cisplatin only or cisplatin followed by STS)", "value": 67, "unit": "%"}]}]}
